Like-named read-outs stand apart in the source and are kept apart here.
Tests used:
pSTAT5 in CD3+ cells = assay: Inhibition of IFN-alpha induced pSTAT5 expression in CD3+ cells (human PBMC), FACS assay; format: cell-based; details: IFN-α 20 ng/ml
Procedure: Test Example 1: The Inhibitory Effect of Compounds on the Expression of Pstat5 in CD3+ Cells Using FACS Assay
• DMSO, Sigma, Cat #D2650-100 mL, stored at room temperature. • Perm buffer III, BD Biosciences, Cat #558050, stored at 4° C. • Lyse/Fix buffer, BD Biosciences, Cat #558049, stored at room temperature. • EDTA, Invitrogen, Cat #15575-038, stored at room temperature. • PBS, Hyclone, Cat #SH30256.01, stored at 4° C. • PE Mouse Anti-Human CD3, BD Biosciences, Cat #555333, stored at 4° C. • Mouse anti-human Phospho-STAT5 (pY694) (Alexa Fluor® 647 Conjugate), • BD Biosciences, Cat #562076, stored at 4° C. • IFN-α, Biolegend, Cat #592702.
• 1) On the day of experiment, the compound was prepared into a 10 mM solution with DMSO, diluted to 1.5 mM in DMSO, and then diluted to 8 gradient concentrations in 3-fold dilutions Concentrations. • 2) 5 μL of the diluted compound was transferred into 120 ul of DPBS solution containing 0.1% BSA. • 3) Positive and negative control groups were set up, and 0.2% DMSO was added to the positive and negative control groups. 2.2 Experimental procedure • 1) 0.5 million and 67.5 ul of human PBMC cells was added to the 96-well cell culture plate per well. • 2) 3.5 ul of diluted compound was added and mixed well. • 3) Incubation was conducted in a 37° C. incubator for 60 minutes. • 4) IFN-alpha was diluted in DPBS containing 0.1% BSA to […], and PE anti-hCD3 antibody was diluted in DPBS containing 0.1% BSA to 3 fold. When the above 60-minute incubation was complete, diluted PE anti-hCD3 antibody was added at 5 ul per well and diluted IFN-α was added at 4 ul per well, i.e., the final concentration of IFN-α per well is 20 ng/ml. • 5) Incubation was conducted in a 37° C. incubator for 30 minutes. • 6) All cells were transferred to a 96-well deep well plate and 1 ml of 37° C. preheated lysis/fix buffer was added. • 7) Incubation was conducted at 37° C. in dark for 10 minutes. • 8) Centrifugation was carried out at 600 g for 5 minutes and then the supernatant was discarded. 1 ml PBS was added to wash for twice and then centrifuged. • 9) 1 ml of Perm buffer III was added to the cell precipitation. • 10) Incubation was conducted at 4° C. in dark for 30 minutes. • 11) Centrifugation was carried out at 600 g for 5 minutes and then the supernatant was discarded. 1 ml PBS was added to wash for twice and then centrifuged. • 12) APC anti-human pSTAT5 antibody was diluted in staining buffer by 200-fold, which was added to cell wells at 100 uL per well and mixed well. • 13) Incubation was conducted at room temperature for 40 minutes. • 14) Staining buffer was added to wash for twice with 1 mL for each well, and centrifugation was carried out at 600 g for 5 minutes. • 15) After discarding the supernatant, the cell precipitation was re-suspended in 300 μL of staining buffer. • 16) Sample loading and analysis were carried out in a flow cytometer. The IC50 of the samples to be tested was obtained from the above, Table 1.

TYK2 (JH1) = TYK2 (JH1) (Homo sapiens (Human), UniProt P29597); assay: JAK family kinase experiment, TYK2 (JH1); format: biochemical
Procedure: (§1) 1.2.1. The compound was dissolved with DMSO to a storage concentration of 10 mM.
(§2) 1.2.2. A compound concentration of 100 times the final concentration was prepared in a compound dilution plate, which was diluted from the highest concentration point with a total of 4 concentration points using the 27 times dilution method, and transferred to the Echo plate.
(§3) 1.2.3. The compound was flushed from the Echo plate to the 384 experimental plate using an Echo instrument, and the compound become 11 concentration points of the 3-fold dilution matrix.
(§4) 1.2.4. 2× kinase working solution was prepared, which was added to a 384-well experimental plate at 5 μl per well. The compound and the kinase were incubated at room temperature for 15 minutes.
(§5) 1.2.5. 5 ul of 2× substrate (containing ATP) was added to the 384 well plate.
(§6) 1.2.6. Incubation was conducted at room temperature for 45 minutes.
(§7) 1.2.7. The detection reagent mixture was added to the 384-well plate, and centrifuged for 30 seconds, and incubation was conducted at room temperature for 60 minutes.
(§8) 1.2.8. The signal values were read using Envision Microplate Reader (PerkinElmer).
(§9) 1.3.1. XL-Fit software was used for data analysis to obtain IC50 of the compounds, Table 2.

TYK2(JH2) = TYK2(JH2) (Homo sapiens (Human), UniProt P29597); assay: Pseudo kinase experiment, TYK2 (JH2), tracer/Tb; format: binding
Procedure: (§10) 1.1.1. The compound was dissolved with DMSO to a storage concentration of 10 mM.
(§11) 1.1.2. A compound concentration of 200 times the final concentration was prepared in a compound dilution plate, which was diluted from the highest concentration point with a total of 4 concentration points using the 27 times dilution method, and transferred to the Echo plate.
(§12) 1.1.3. The compound was flushed from the Echo plate to the 384-well experimental plate using an Echo instrument, and the compound become 11 concentration points of the 3-fold dilution matrix.
(§13) 1.1.4. 5 μl of 3×TYK2(JH2) or JAK1(JH2) kinase was added to the 384-well experimental plate.
(§14) 1.1.5. 5 μl of 3×Tb was added to the 384-well experimental plate.
(§15) 1.1.6.5 μl of 3× Tracer was added to the 384-well experimental plate.
(§16) 1.1.7. Centrifugation was conducted for 30 seconds and incubation was carried out at room temperature for 60 minutes.
(§17) 1.1.8. The signal values were read using Envision Microplate Reader (PerkinElmer).
as §9

JAK1 (JH1) = JAK1 (JH1) (Homo sapiens (Human), UniProt P23458); assay: JAK family kinase experiment, JAK1 (JH1); format: biochemical
Procedure: as §1, §2, §3, §4, §5, §6, §7, §8, §9

JAK1(JH2) = JAK1(JH2) (Homo sapiens (Human), UniProt P23458); assay: Pseudo kinase experiment, JAK1 (JH2), tracer/Tb; format: binding
Procedure: as §10, §11, §12, §13, §14, §15, §16, §17, §9

JAK2 (JH1) = JAK2 (JH1) (Homo sapiens (Human), UniProt O60674); assay: JAK family kinase experiment, JAK2 (JH1); format: biochemical
Procedure: as §1, §2, §3, §4, §5, §6, §7, §8, §9

JAK3 (JH1) = JAK3 (JH1) (Homo sapiens (Human), UniProt P52333); assay: JAK family kinase experiment, JAK3 (JH1); format: biochemical
Procedure: as §1, §2, §3, §4, §5, §6, §7, §8, §9

[1] = Drug concentrations in plasma samples and brain tissue samples after oral administration, LC-MS/MS; format: in vivo, female C57BL/6 mice; details: female, C57BL/6, mouse, 15 consecutive days, 2Hr after the last dose, mice; for Kp at 2 h: brain/plasma, read-out: Ratio (brain tissue to plasma concentration)
Procedure: The purpose of the study was to evaluate drug concentrations in plasma samples and brain tissue samples of female C57BL/6 mice after 15 consecutive days of oral administration of 10 mg/kg, 30 mg/kg, and 90 mg/kg of Compound 4S. The drug concentrations of Compound 4S in plasma samples and brain tissue homogenate samples were detected by the positive ion (ESI) multi-reactive ion monitoring (MRM) scanning mode of LC-MS instrument with a linear range of 1-10000 ng/mL.
Plasma samples from 10 mice orally administered with Compound 4S: For standard curves, QC samples, single blanks, and unknown samples, the sample volume was 10 μL and each was added with 200 μL of methanol: acetonitrile=1:1 (v/v) precipitant (containing 5 ng/mL of Terfenadine). For double-blank samples, each was added with 200 μL of Methanol: Acetonitrile=1:1 (v/v) precipitant. The samples were vortexed for 1 min and centrifuged for 15 min (4000 rpm, 4° C.) to obtain the supernatant solution, which was diluted by 10-fold using methanol: water=1:1 (v/v, containing 0.1% FA) as the diluent solution and then subjected to LC-MS/MS analysis.
Brain tissue homogenate samples from 10 mice orally administered with Compound 4S: For standard curves, QC samples, single blanks, and unknown samples, the sample volume was 50 μL and each was added with 200 μL of methanol: acetonitrile=1:1 (v/v) precipitant (containing 5 ng/mL of Terfenadine). For double-blank samples, a 50 μL sample of blank brain tissue homogenate was taken and added with 200 μL of methanol/acetonitrile (1:1, v/v) precipitant. The samples were vortexed for 1 min and centrifuged for 15 min (4000 rpm, 4° C.) to obtain the supernatant solution, which was diluted by 10-fold using methanol: water=1:1 (v/v, containing 0.1% FA) as the diluent solution and then subjected to LC-MS/MS analysis. Drug exposures in plasma samples and brain tissue samples at different administered doses and at different frequencies of administration of the same administered dose were compared (Table 3).

JAK1 (JH1), sequence (P23458 875-1153): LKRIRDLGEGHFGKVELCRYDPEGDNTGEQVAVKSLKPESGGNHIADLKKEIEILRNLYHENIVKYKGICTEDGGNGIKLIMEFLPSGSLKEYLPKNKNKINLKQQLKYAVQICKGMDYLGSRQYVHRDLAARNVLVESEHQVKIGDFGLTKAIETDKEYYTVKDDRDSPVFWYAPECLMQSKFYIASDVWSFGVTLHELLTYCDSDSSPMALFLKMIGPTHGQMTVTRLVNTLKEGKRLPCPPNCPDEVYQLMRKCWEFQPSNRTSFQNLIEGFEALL
TYK2(JH2), sequence (P29597 589-875): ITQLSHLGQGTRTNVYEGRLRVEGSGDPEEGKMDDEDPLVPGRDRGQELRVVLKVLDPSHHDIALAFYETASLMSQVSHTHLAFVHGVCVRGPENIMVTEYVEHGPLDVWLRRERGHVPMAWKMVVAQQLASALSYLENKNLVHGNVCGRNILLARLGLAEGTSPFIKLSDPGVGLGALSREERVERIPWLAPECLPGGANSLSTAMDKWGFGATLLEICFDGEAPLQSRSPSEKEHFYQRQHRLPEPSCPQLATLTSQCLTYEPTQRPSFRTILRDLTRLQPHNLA
JAK1(JH2), sequence (P23458 583-855): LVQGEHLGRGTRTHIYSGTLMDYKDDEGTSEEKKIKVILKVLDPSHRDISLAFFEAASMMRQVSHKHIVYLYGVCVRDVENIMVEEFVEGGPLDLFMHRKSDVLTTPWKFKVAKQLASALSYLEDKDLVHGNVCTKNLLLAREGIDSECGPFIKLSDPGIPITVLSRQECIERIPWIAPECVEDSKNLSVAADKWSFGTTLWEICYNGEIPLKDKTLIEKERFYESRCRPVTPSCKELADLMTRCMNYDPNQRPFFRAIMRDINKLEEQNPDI
TYK2 (JH1), sequence (P29597 897-1176): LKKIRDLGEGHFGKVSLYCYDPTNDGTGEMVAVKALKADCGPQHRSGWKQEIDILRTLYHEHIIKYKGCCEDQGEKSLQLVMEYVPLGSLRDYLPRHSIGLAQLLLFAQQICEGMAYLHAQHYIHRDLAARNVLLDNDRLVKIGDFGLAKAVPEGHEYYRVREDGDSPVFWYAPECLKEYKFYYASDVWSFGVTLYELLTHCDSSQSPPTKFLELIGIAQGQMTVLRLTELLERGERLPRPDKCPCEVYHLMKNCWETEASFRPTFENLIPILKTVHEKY
JAK2 (JH1), sequence (O60674 849-1124): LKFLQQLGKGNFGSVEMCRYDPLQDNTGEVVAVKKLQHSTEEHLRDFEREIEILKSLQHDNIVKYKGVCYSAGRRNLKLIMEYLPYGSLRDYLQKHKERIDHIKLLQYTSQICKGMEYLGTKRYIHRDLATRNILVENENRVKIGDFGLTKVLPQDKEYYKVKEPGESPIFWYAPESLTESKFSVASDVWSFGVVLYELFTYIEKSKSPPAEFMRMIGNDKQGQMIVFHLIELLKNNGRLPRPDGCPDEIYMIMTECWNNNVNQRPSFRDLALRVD
JAK3 (JH1), sequence (P52333 822-1111): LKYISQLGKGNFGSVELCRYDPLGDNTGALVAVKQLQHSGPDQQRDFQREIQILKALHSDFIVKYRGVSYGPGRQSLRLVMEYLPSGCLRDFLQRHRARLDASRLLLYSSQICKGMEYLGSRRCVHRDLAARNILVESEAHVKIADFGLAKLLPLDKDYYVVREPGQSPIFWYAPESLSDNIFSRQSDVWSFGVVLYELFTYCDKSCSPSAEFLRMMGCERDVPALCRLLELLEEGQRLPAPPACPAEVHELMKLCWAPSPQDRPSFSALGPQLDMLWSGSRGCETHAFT

CCC(=O)c1cnc(NC(=O)[C@@H]2CC23CC3)cc1Nc1nccc(-c2cnn(C)n2)c1OC [Compound 1R]
IC50 (pSTAT5 in CD3+ cells): > 50 nM

CCC(=O)c1cnc(NC(=O)[C@H]2CC23CC3)cc1Nc1nccc(-c2cnn(C)n2)c1OC [Compound 1S]
IC50 (pSTAT5 in CD3+ cells): < 50 nM

CCC(=O)c1cnc(NC(=O)[C@@H]2CC23CC3)cc1Nc1cccc(-c2cnn(C)n2)c1OC [Compound 2R]
IC50 (pSTAT5 in CD3+ cells): > 50 nM

CCC(=O)c1cnc(NC(=O)[C@H]2CC23CC3)cc1Nc1cccc(-c2cnn(C)n2)c1OC [Compound 2S]
IC50 (pSTAT5 in CD3+ cells): > 50 nM

[2H]C([2H])([2H])n1ncc(-c2ccnc(Nc3cc(NC(=O)[C@@H]4CC45CC5)ncc3C(=O)CC)c2OC)n1 [Compound 3R]
IC50 (pSTAT5 in CD3+ cells): < 50 nM

[2H]C([2H])([2H])n1ncc(-c2ccnc(Nc3cc(NC(=O)[C@H]4CC45CC5)ncc3C(=O)CC)c2OC)n1 [Compound 3S]
IC50 (pSTAT5 in CD3+ cells): < 50 nM

[2H]C([2H])([2H])Oc1c(-c2cnn(C)n2)ccnc1Nc1cc(NC(=O)[C@@H]2CC23CC3)ncc1C(=O)CC [Compound 4R]
IC50 (pSTAT5 in CD3+ cells): > 50 nM

[2H]C([2H])([2H])Oc1c(-c2cnn(C)n2)ccnc1Nc1cc(NC(=O)[C@H]2CC23CC3)ncc1C(=O)CC [Compound 4S]
IC50 (pSTAT5 in CD3+ cells): < 50 nM
IC50 (TYK2 (JH1)): > 9900 nM
IC50 (TYK2(JH2)): 0.29 nM
IC50 (JAK1 (JH1)): > 9900 nM
IC50 (JAK1(JH2)): 22 nM
IC50 (JAK2 (JH1)): 5420 nM
IC50 (JAK3 (JH1)): > 9900 nM
concentration at 2 h ([1]; brain, 10 mg/kg, 10 mg QD oral, read-out: concentration in brain): 615 ng/mL
concentration at 2 h ([1]; brain, 30 mg/kg, 30 mg BID oral, read-out: concentration in brain): 2360 ng/mL
concentration at 2 h ([1]; brain, 30 mg/kg, 30 mg QD oral, read-out: concentration in brain): 2360 ng/mL
concentration at 2 h ([1]; brain, 90 mg/kg, 90 mg QD oral, read-out: concentration in brain): 6260 ng/mL
Kp at 2 h ([1]; 10 mg/kg, 10 mg QD oral): 0.788
Kp at 2 h ([1]; 30 mg/kg, 30 mg BID oral): 0.88
Kp at 2 h ([1]; 30 mg/kg, 30 mg QD oral): 1.11
Kp at 2 h ([1]; 90 mg/kg, 90 mg QD oral): 1.32
concentration at 2 h ([1]; plasma, 10 mg/kg, 10 mg QD oral, read-out: concentration in plasma): 784 ng/mL
concentration at 2 h ([1]; plasma, 30 mg/kg, 30 mg BID oral, read-out: concentration in plasma): 2740 ng/mL
concentration at 2 h ([1]; plasma, 30 mg/kg, 30 mg QD oral, read-out: concentration in plasma): 2040 ng/mL
concentration at 2 h ([1]; plasma, 90 mg/kg, 90 mg QD oral, read-out: concentration in plasma): 4720 ng/mL

[2H]C([2H])([2H])Oc1c(-c2cnn(C([2H])([2H])[2H])n2)ccnc1Nc1cc(NC(=O)[C@@H]2CC23CC3)ncc1C(=O)CC [Compound 5R]
IC50 (pSTAT5 in CD3+ cells): > 50 nM

[2H]C([2H])([2H])Oc1c(-c2cnn(C([2H])([2H])[2H])n2)ccnc1Nc1cc(NC(=O)[C@H]2CC23CC3)ncc1C(=O)CC [Compound 5S]
IC50 (pSTAT5 in CD3+ cells): < 50 nM

CCC(=O)c1cnc(NC(=O)[C@@H]2CC23CC3)cc1Nc1nc(C)cc(-c2cnn(C)n2)c1OC [Compound 6R]
IC50 (pSTAT5 in CD3+ cells): < 50 nM

CCC(=O)c1cnc(NC(=O)[C@H]2CC23CC3)cc1Nc1nc(C)cc(-c2cnn(C)n2)c1OC [Compound 6S]
IC50 (pSTAT5 in CD3+ cells): < 50 nM

— patent US20250333393A1, “HETEROCYCLIC COMPOUND AS TYK2 INHIBITOR, AND SYNTHESIS AND USE THEREOF” (ZHEJIANG WENDA PHARMACEUTICAL TECHNOLOGY CO., LTD., priority 2023, published 2025)
